According to the NIST ThermoML archive (doi:10.1016/j.jct.2009.07.002):

Experiment: isobaric coefficient of expansion
Details: Liquid, DSC with Pressure Shift

CCCCCO [pentan-1-ol]
isobaric coefficient of expansion
Details	278.15 K	288.15 K	298.15 K	308.15 K	318.15 K	328.15 K	338.15 K	348.15 K
5000 kPa	0.000863 1/K	0.000873 1/K	0.000889 1/K	0.000908 1/K	0.000934 1/K	0.00096 1/K	0.001 1/K	0.00105 1/K
10000 kPa	0.000833 1/K	0.00085 1/K	0.000864 1/K	0.000883 1/K	0.000904 1/K	0.00093 1/K	0.000961 1/K	0.001 1/K
15000 kPa	0.000826 1/K	0.000831 1/K	0.000847 1/K	0.00086 1/K	0.000879 1/K	0.000899 1/K	0.000927 1/K	0.00096 1/K
20000 kPa	0.000805 1/K	0.000813 1/K	0.000825 1/K	0.000838 1/K	0.000853 1/K	0.000873 1/K	0.000899 1/K	0.000927 1/K
25000 kPa	0.000788 1/K	0.000795 1/K	0.000805 1/K	0.000816 1/K	0.00083 1/K	0.000849 1/K	0.000874 1/K	0.000899 1/K
30000 kPa	0.000778 1/K	0.000779 1/K	0.000788 1/K	0.000796 1/K	0.000814 1/K	0.000827 1/K	0.000847 1/K	0.000871 1/K
35000 kPa	0.000752 1/K	0.000761 1/K	0.000772 1/K	0.00078 1/K	0.000794 1/K	0.000809 1/K	0.000828 1/K	0.000849 1/K
40000 kPa	0.000742 1/K	0.000747 1/K	0.000757 1/K	0.000763 1/K	0.000776 1/K	0.00079 1/K	0.000806 1/K	0.000826 1/K
45000 kPa	0.000735 1/K	0.000735 1/K	0.000741 1/K	0.000748 1/K	0.000759 1/K	0.000772 1/K	0.000786 1/K	0.000807 1/K
50000 kPa	0.000719 1/K	0.000724 1/K	0.000729 1/K	0.000734 1/K	0.000745 1/K	0.000755 1/K	0.000773 1/K	0.000787 1/K
55000 kPa	0.000714 1/K	0.000713 1/K	0.000717 1/K	0.000721 1/K	0.000731 1/K	0.00074 1/K	0.000755 1/K	0.000768 1/K

CCCC(C)O (centres undefined) [pentan-2-ol]
isobaric coefficient of expansion
Details	278.15 K	288.15 K	298.15 K	308.15 K	318.15 K	328.15 K	338.15 K	348.15 K
5000 kPa	0.000883 1/K	0.000922 1/K	0.000961 1/K	0.00101 1/K	0.00106 1/K	0.0011 1/K	0.00114 1/K	0.00119 1/K
10000 kPa	0.000858 1/K	0.000896 1/K	0.000935 1/K	0.000983 1/K	0.00103 1/K	0.00107 1/K	0.00111 1/K	0.00115 1/K
15000 kPa	0.00084 1/K	0.00088 1/K	0.000914 1/K	0.000956 1/K	0.001 1/K	0.00103 1/K	0.00107 1/K	0.00111 1/K
20000 kPa	0.000827 1/K	0.000857 1/K	0.00089 1/K	0.000929 1/K	0.000971 1/K	0.00101 1/K	0.00105 1/K	0.00108 1/K
25000 kPa	0.000801 1/K	0.000842 1/K	0.000872 1/K	0.000909 1/K	0.000946 1/K	0.000983 1/K	0.00102 1/K	0.00105 1/K
30000 kPa	0.000789 1/K	0.000823 1/K	0.000851 1/K	0.000889 1/K	0.000923 1/K	0.000957 1/K	0.000991 1/K	0.00102 1/K
35000 kPa	0.000773 1/K	0.000805 1/K	0.000834 1/K	0.000868 1/K	0.000902 1/K	0.000933 1/K	0.000967 1/K	0.000995 1/K
40000 kPa	0.000756 1/K	0.000788 1/K	0.00081 1/K	0.00085 1/K	0.000879 1/K	0.000914 1/K	0.000941 1/K	0.00097 1/K
45000 kPa	0.000745 1/K	0.000775 1/K	0.000799 1/K	0.00083 1/K	0.00086 1/K	0.000889 1/K	0.00092 1/K	0.000946 1/K
50000 kPa	0.00073 1/K	0.000758 1/K	0.000784 1/K	0.000814 1/K	0.000841 1/K	0.000872 1/K	0.000899 1/K	0.000923 1/K
55000 kPa	0.000719 1/K	0.000745 1/K	0.000766 1/K	0.000793 1/K	0.000819 1/K	0.000844 1/K	0.000866 1/K	0.000888 1/K

CCCO [propan-1-ol]
isobaric coefficient of expansion
Details	278.15 K	288.15 K	298.15 K	308.15 K	318.15 K	328.15 K	338.15 K	348.15 K
5000 kPa	0.000927 1/K	0.000947 1/K	0.000967 1/K	0.001 1/K	0.00104 1/K	0.00107 1/K	0.00111 1/K	0.00116 1/K
10000 kPa	0.000901 1/K	0.000923 1/K	0.000943 1/K	0.000975 1/K	0.001 1/K	0.00104 1/K	0.00108 1/K	0.00112 1/K
15000 kPa	0.000883 1/K	0.000902 1/K	0.00092 1/K	0.000948 1/K	0.000976 1/K	0.00101 1/K	0.00104 1/K	0.00108 1/K
20000 kPa	0.000868 1/K	0.000884 1/K	0.000899 1/K	0.000925 1/K	0.000947 1/K	0.000975 1/K	0.00101 1/K	0.00105 1/K
25000 kPa	0.00085 1/K	0.000867 1/K	0.000877 1/K	0.0009 1/K	0.000922 1/K	0.00095 1/K	0.000977 1/K	0.00101 1/K
30000 kPa	0.000834 1/K	0.000848 1/K	0.000858 1/K	0.000882 1/K	0.000899 1/K	0.000923 1/K	0.000951 1/K	0.000984 1/K
35000 kPa	0.000818 1/K	0.00083 1/K	0.000843 1/K	0.000859 1/K	0.00088 1/K	0.000901 1/K	0.000926 1/K	0.000958 1/K
40000 kPa	0.000803 1/K	0.000816 1/K	0.000822 1/K	0.000844 1/K	0.000854 1/K	0.000878 1/K	0.000899 1/K	0.000927 1/K
45000 kPa	0.00079 1/K	0.000801 1/K	0.000811 1/K	0.000824 1/K	0.000839 1/K	0.000858 1/K	0.000881 1/K	0.000906 1/K
50000 kPa	0.000777 1/K	0.000786 1/K	0.000795 1/K	0.000809 1/K	0.000822 1/K	0.000838 1/K	0.000862 1/K	0.000885 1/K
55000 kPa	0.000767 1/K	0.000775 1/K	0.000781 1/K	0.000794 1/K	0.000806 1/K	0.000821 1/K	0.000837 1/K	0.000861 1/K
